Patent US20200000721A1, “AQUEOUS COMPOSITIONS AND ASSOCIATED CREAM FORMULATIONS” (MedReleaf Corp., priority 2018, published 2020)

Test system: microbial growth in the aqueous composition
Details: 0.09% in aqueous composition of Table 6
Procedure: Microbiological testing was conducted according to USP <51> and USP (Antimicrobial Effectiveness Test) and USP <61> and <62> (Suitability Testing) in order to compare the effectiveness of 1) 0.09% potassium sorbate 2) 0.045% potassium sorbate and 0.045% Euxul™ 9010 and 3) 0.09% Euxul™ 9010 as an antimicrobial agent for prohibiting microbial growth in the aqueous composition described in Table 6.

Structure (SMILES): C/C=C/C=C/C(=O)[O-].[K+] [potassium sorbate]
- effectiveness as antimicrobial agent (comparison): as effective as Euxul™ 9010 and/or the combination of Euxul™ 9010 and potassium sorbate
